This note sets out measurements from patent US20040013649A1, “Cancer vaccines and methods of using the same” (Inex Pharmaceuticals Corporation, priority 2002, published 2004).

“Also recorded” adds a separate entry of the source.

Series [1] has as its system IL-12, IL-6, IFN-γ and MCP-1. Put plainly: plasma cytokine levels after i.v. injection. The conditions noted are these: for stimulation of plasma IL-6, IL-12, IFN-γ and MCP-1: encapsulated in DSPC:Chol:DODAP:PEG-CER14 20:45:25:10, i.v. It counts as in vivo, ICR mice. As for the experimental part:
As noted above, with non-lipid encapsulated oligonucleotides the backbone is traditionally modified so as to reduce molecular degradation by nucleases. However, on encapsulation, such a modification is no longer required to prevent degradation. To establish the effect of a different phosphate backbone on cytokine stimulation induced by lipid encapsulation, mice were injected with oligonucleotides having both PO and PS backbones, and cytokine stimulation was measured over a series of points in time (as shown in FIG. 6 and 7B) and over a sliding dosage scale as shown in FIG. 7A. In this experiment ICR mice were injected i.v. with a 20 mg ODN/kg dose of free PO ODN1, encapsulated PO-ODN1 and encapsulated PS-ODN1. […] Cytokine stimulation is generally indicative of a cellular immune response as is a chemokine response in MCP-1. Oligonucleotides were encapsulated in a lipid particle composed of DSPC:Chol:DODAP:PEG-CER14 in a ratio of 20:45:25:10.

For series [2], the system named is B16 cells. Put plainly: TRP-2 peptide vaccination, B16 pulmonary metastases. As to conditions: SC weekly ×3, then B16 cells IV. It is filed as in vivo, mice. As for the experimental part: TRP-2 and gp100 studies were conducted using the B16/BL6 murine melanoma model. B16 cells (1.0×105) were injected IV in a volume of […]. Typically, animals were vaccinated weekly for 2-3 injections and B16 cells were then administered 1-2 days after the final vaccination. Animals were terminated between days 14-18 post-B16 injection, lungs were removed, and metastases were counted using a stereomicroscope.
TRP-2 peptide was mixed with various adjuvant formulations and was administered SC weekly (×3), followed by an IV administration of B16 cells, which aggressively seed to the lung to form numerous micro metastases. […] CFA is a balanced Th1/Th2 and gave a modest response (mean=46), consistent with the E.G7-OVA studies.

Series [3] relates to E.G7-OVA. Put plainly: prophylactic efficacy of OVA / OVA257-264 vaccination, E.G7-OVA model. It counts as in vivo, C57/BL6 mice. Also on record: anti-tumor activity / antigen specific efficacy / adjuvant activity following prophylactic vaccination: dose or concentration left out as unconfirmed. The conditions noted are these: for efficacy of ODN sequences: LNA (encapsulated) forms, FIG. 35; for prophylactic effect on tumor growth: OVA257-264 peptide, LNA containing ODN 30 (PO), SC for 2 weeks, FIG. 31; for anti-tumor activity: antigen alone, once weekly vaccination, 2 injections. As for the experimental part: Vaccinations. B6 mice were vaccinated subcutaneously (SC) with […] per injection. Dosing schedules were either q7dx2 or q4dx4 and are indicated in the individual figure legends. CFA mixtures were very viscous and had to be given with a larger gauge syringe. For humoral studies, a prime (day 0) and boost (day 14) strategy was used and blood samples were collected at various times by tail nicking.
Efficacy studies. E.G7-OVA or EL-4 thymoma cell lines were used throughout the study. These cells were cultured in vitro according to established methods. For tumor studies, 2.5×106 E.G7-OVA cells were injected subcutaneously in […] of PBS containing 1% FCS. Tumor measurements were made by repeated perpendicular measurements of tumor dimensions and using the formula: […]
Full-length OVA and the immunodominant cytotoxic T lymphocyte (CTL) peptide epitope (OVA257-264) were used to evaluate cell mediated immune responses and the prophylactic and therapeutic efficacy of OVA vaccination against the E.G7-OVA transfected cell line, using LNA both as an adjuvant and as the basis for a cancer vaccine formulation. LNA formulations for this experiment were prepared using DSPC:Chol:DODAP:PEGCer14 at a ration of 25:45:20:10
The anti-tumor activity of OVA and OVA257-264 were examined against the murine thymoma cell line, E.G7-OVA, implanted subcutaneously (SC) in C57/BL6 mice. […] Given the activity observed with the protein or peptide alone, this dose and schedule represents a useful model to evaluate adjuvants designed to boost the immune response against OVA and/or OVA257-264.
To examine LNA formulations as adjuvants, the impact of three variables were evaluated on vaccination and efficacy in the prophylactic E.G7-OVA model: (1) the activity of free vs. encapsulated ODN 1, (2) phosphodiester (PO) vs phosphorothioate (PS) ODN, and (3) full-length OVA protein vs single-epitope peptide OVA257-264 (FIGS. 30A and B). In this set of studies, free and encapsulated ODN 1 was simply mixed with antigen and administered SC near the nape of the neck. ODN and antigen doses in these studies were […], respectively.

For series [4], the system named is leukocytes bearing the activation marker CD69. The series is described as follows: in vivo stimulation of the CD69 marker after injection. As to conditions: lipid encapsulated oligonucleotide; 10 mg/kg ODN2, 20 mg/kg ODN1; 16 and 24 hours after injection. Details: species or system ICR mice. As for the experimental part:
(§1) CD69 is a cell activation marker, which quantifies the activation of NK cells, B cells and monocytes. Expression of CD69 on NK cells indicates cell activation and production of IFN-γ, which is important to inducing a Th-1 immune response. Free and encapsulated ODN1 and 2 were tested in vitro and in vivo for their ability to induce CD69 expression. A dose of 0.1 mg/ml of ODN2 and 10 mg/ml ODN1 were used in vitro and 10 mg/kg of ODN2 and 20 mg/kg of ODN1 in vivo. Each oligonucleotide was encapsulated in a lipid particle composed of POPC:CHOL:DODMA:PEGDMG in a ratio of 20:45:25:10.
When the same oligonucleotides were tested in vivo, however, surprising results were obtained. FIG. 2 illustrates that in vivo treatment of ICR mice by injection with encapsulated or free oligonucleotides produces results that are contrary to those obtained in vitro.

Series [5] relates to dendritic cells. Put plainly: expansion of dendritic cells (CD11c, DEC205) in spleen, blood and lymph nodes. It counts as in vivo, ICR mice. As to conditions: lipid encapsulated; single i.v. injection 20 mg/kg; versus PBS control = 100%. How it is done:
ICR mice were immunized with a single intravenous injection of encapsulated oligonucleotides at a dose of 20 mg/kg and the control ICR mouse was injected with PBS. […] Each of these markers are specific to dendritic cells though they may represent different cell sub-populations. In each of FIGS. 4 and 5 the control was plotted as equivalent to 100% and the effect of ODN1m for each backbone configuration was plotted as a percentage of that control.

In series [6] the test system is leukocytes bearing the activation marker CD69. Put plainly: in vitro stimulation of CD69 on leukocytes in mouse whole blood. It is filed as cell-based. As to conditions: oligonucleotide encapsulated in POPC:CHOL:DODMA:PEGDMG 20:45:25:10. How it is done:
as §1
FIG. 1 illustrates the in vitro stimulation of leukocytes bearing the activation marker CD69 from treating mouse whole blood with free oligonucleotides and encapsulated oligonucleoties, specifically ODN1 and 2. When mouse whole blood was treated in vitro with free oligonucleotides there was a dose responsive increase in the amount of CD69 positive B-cells, monocytes and to some extent, NK cells, according to the amount of free oligonucleotide used 15 hours after treatment. […] However, when these same oligonucleotides were encapsulated in a lipid vesicle, the in vitro stimulation of CD69 production on these same cell types was reduced or abolished altogether.

Series [7] has as its system EG.7 Ova expressing tumor cells. Put plainly: prophylactic anti-tumor efficacy, EG7-OVA tumor model, q7d×3. It counts as in vivo, C57BI/6 mice. How it is done:
Efficacy studies. E.G7-OVA or EL-4 thymoma cell lines were used throughout the study. These cells were cultured in vitro according to established methods. […] Tumor measurements were made by repeated perpendicular measurements of tumor dimensions and using the formula: […]
Anti-tumor efficacy induced by subcutaneous immunization was assessed in C57BI/6 (5 animals per group) in a prophylactic immunization model. Mice were immunized subcutaneously with 3 injections on a q7d×3 dosing regimen on Days 0, 7 and 14 at a dose of 100 μg oligonucleotide and 20 μg of OVA antigen dose. […] Mice were monitored 3 times weekly to assess tumor growth and weight gain. Control mice were injected with one of PBS or HBS and […] of OVA antigen on the same schedule described above. Oligonucleotides were encapsulated in a lipid particle having a lipid composition of one of POPC: CHOL: DODAP:PEGCer14 or DSPC: CHOL: DODAP:PEGCer14 each in a ratio of 25:45:20:10. All comparisons of methylated and unmethylated oligonucleotides were done using like lipid particles. Results from these efficacy experiments are detailed in FIGS. 12-15, 18-21, and 25-28. Day 0 on each of the Figures is the day each animal was challenged with the tumor.

The mark [8] stands for this setting: encapsulated form versus free at the same dose.
Setting [9] is: TRP-2 peptide alone or mixed with free ODN or other adjuvant.
Where [10] appears, read: encapsulated ODN (LNA) mixed with TRP-2 peptide.

In the case of “ODN14: 5′-AACC GTT GAG GGG CAT-3′, SEQ ID NO: 14, human c-myc (AACCGTTGAGGGGCAT; tested as both phosphodiester and phosphorothioate backbone forms, lipid-encapsulated, further chemistry not given here)”, in series [1] (setting [8]), the “increase in IFN-γ” value worked out at 20 fold, the “increase in IL-6” value came to 1000 fold and the “increase in peak plasma IL-12” value stood at 2.5 fold. In addition, in series [1], the “stimulation of plasma IL-6, IL-12, IFN-γ and MCP-1” value was “increased IL-12 induction”.
For “ODN 3: 5′-TAAGCATACGGGGTGT-3, SEQ ID NO: 3; non-CpG ODN control sequence for ODN 1 (chemistry not given here)”, the “mean number of metastases” value in series [2] (setting [9]) is recorded as 83; in series [2] (setting [10]), 23.
For the substance “ODN 29: 5′-CAACGTTATGGGGAGA-3′, SEQ ID NO: 29; non-antisense version of ODN 1 (chemistry not given here)”, in series [3], the “efficacy of ODN sequences” value is “strongest responses”.
Take “ODN1: 5′-TAACGTTGAGGGGCAT-3, SEQ ID NO: 2, human c-myc (tested as both phosphodiester and phosphorothioate backbone forms, lipid-encapsulated, further chemistry not given here)”: the “stimulation of the CD69 marker in vivo” value in series [4] is listed as “able to stimulate production of CD69 on NK cells”. In addition, the “efficacy of ODN sequences” value in series [3] was “strongest responses”. The “antigen specific efficacy / adjuvant activity following prophylactic vaccination” value in series [3] (free or encapsulated ODN 1 mixed with OVA or OVA257-264, SC) is given as “encapsulation of ODN 1 resulted in increased antigen specific efficacy”. Further, the results for the “mean number of metastases” value in series [2] (setting [9]) and in series [2] (setting [10]) were 37 and 6, respectively. For the same substance, the “expansion of CD11c positive dendritic cells” value in series [5] is “stimulated the expansion of CD11c positive cells in spleen and whole blood”. Also, the “expansion of DEC205 positive dendritic cells” value in series [5] is “stimulate the expansion of DEC205 positive cells in spleen, whole blood and lymph node”. Further, in series [1] (encapsulated PS oligonucleotides, 6 days after treatment), the “late IFN-γ peak” value is given as “produced a strong IFN-γ peak; also recorded: produced an IFN-gamma peak”. In addition, in series [1], the “stimulation of plasma IL-6, IL-12, IFN-γ and MCP-1” value is “increased IL-12 induction”. Also, in series [6], the “stimulation of CD69 positive B-cells, monocytes and NK cells” value is “reduced the stimulation of CD69 on NK cells below the control level”. The “reduction in tumor growth” value is “showed a greater reduction in tumor growth than their methylated counterparts” in series [7] (free ODN, 100 μg ODN + 20 μg OVA s.c. q7d×3, tumor challenge Day 21) and “lost its efficacy” in series [7] (lipid encapsulated ODN, PO backbone, 100 μg ODN + 20 μg OVA s.c. q7d×3). In series [7] (lipid encapsulated ODN, FIG. 19B), the “number of animals remaining in the study” value is “essentially identical throughout the study”.
In the case of “pOVA: immunodominant CTL peptide epitope OVA257-264 (ESIINFEK; UniProt P01012 257-264, looked up, fragment) [reference compound]”, in series [3], the “prophylactic effect on tumor growth” value is “no prophylactic effect” and the anti-tumor activity entry is recorded as “no anti-tumor activity was observed”.
Take “mOVA: acylated OVA257-264 peptide; modified peptide with stearoyl group at the N-terminus [reference compound]”: in series [3], the “prophylactic effect on tumor growth” value is “no prophylactic effect” and the anti-tumor activity entry is listed as “no anti-tumor activity was observed”.
For “TRP-2 peptide: immunodominant MHC class I peptide epitope of TRP-2, VYDFFVWL [reference compound]”, the “mean number of metastases” value in series [2] (setting [9]) is 82.
